{
  "source": "patent US20250270251A1",
  "about": "“PROCESS FOR THE PREPARATION OF […] HAVING A DEFINITE PARTICLE SIZE DISTRIBUTION AND A IRREGULAR HEXAGON PLATES CRYSTAL HABIT” (F.I.S. - FABBRICA ITALIANA SINTETICI S.P.A., priority 2020, published 2025)",
  "format_in_all_cases": "physicochemical",
  "key": {"[1]": {"test": "Particle size distribution (PSD) with a Malvern Mastersizer 3000", "method": "Particle size distribution (PSD): In particular, particle size distribution was determined with a Malvern Mastersizer 3000, and the other parameters used are reported in table below: […]"}, "[2]": {"test": "DSC comparative study of crystal habits", "settings": "irregular hexagon plates versus non-irregular hexagon plates crystals; from DSC onset and peak", "method": "DSC analysis was recorded with a Mettler DSC822e. A sample of compound was charged into a 40 μL aluminium crucible with a pinhole lid and was heated, under nitrogen (50 mL/min), at 10° C./min from 30 to 300° C.\nDSC testing was performed in a sealed medium pressure stainless steel crucible. All the testing was performed by heating the sample from 30° C. at a rate of 10° C./minute up to a maximum temperature of 300° C."}, "[3]": {"test": "Microscopy analysis (SEM) for identification of crystal habit and size", "settings": "crystallized with a C2-C5 alkyl alcohol, examples 2 to 9", "method": "The mean square weight means is determined by chord-length distribution analysis of Trenbolone Acetate of formula (I), in particular, was through by scanning electron microscopy (SEM).\nMicroscopy analysis: the solid of Trenbolone Acetate (I) was analysed by microscopy for identification of crystal habits.\nMicroscope was recorded with a Zeiss Evo MA10 scanning electron microscope. A sample of powder has been gold spattered and observed by SEM at different magnification, micrographs have been collected at same conditions and magnification (20 kV, HDBSD, Variable Pressure). All the samples have been observed after same treatment and same time after preparation."}, "[4]": {"settings": "Example 12, crystallization from isopropanol, seed D10 4-12, D50 12-29, D90 <76 μm"}, "[5]": {"settings": "Example 13, recrystallization from IPA, seed D10 2-5, D50 10-20, D90 25-51 μm"}},
  "data": [
    {"molecule": "CC(=O)O[C@H]1CC[C@H]2[C@@H]3CCC4=CC(=O)CCC4=C3C=C[C@]12C", "note": "[Compound (I), 17beta-acetoxy-estra-4,9,11-triene-3-one]", "values": [
      {"measurement": "PSD D50", "setting": "[1]; Example 2, crystallization from isopropanol, seeded at 20-25 °C", "value": "67-130 μm"},
      {"measurement": "PSD D10", "setting": "[1]; [4]", "value": "15-40 μm"},
      {"measurement": "PSD D50", "setting": "[1]; [4]", "value": "67-130 μm"},
      {"measurement": "PSD D90", "setting": "[1]; [4]", "value": 350, "unit": "μm"},
      {"measurement": "PSD D10", "setting": "[1]; [5]", "value": "15-40 μm"},
      {"measurement": "PSD D50", "setting": "[1]; [5]", "value": "67-130 μm"},
      {"measurement": "PSD D90", "setting": "[1]; [5]", "value": 300, "unit": "μm"},
      {"measurement": "thermodynamic stability of the crystal habit", "setting": "[2]", "value": "thermodynamically more stable"},
      {"measurement": "size range of thin irregular hexagon plates", "setting": "[3]", "value": "20-200 micron"}
    ]}
  ]
}
